# Assay results: PubChem BioAssay AID1845219 (Molecular Pharmacology Branch, DTP, NCI, 2023)
# Tested on: SYO-1 tumor spheroids, viability % test/control
# Assay: Anticancer human tumor SYO-1 cell line growth inhibition;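 note: spheroids exposed to agents for 7 days before viability read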;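 for viability, T/C: 100% = DMSO vehicle control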
# Conditions: spheroids with HUVEC and MSC; for IC50: curve of first compound; for viability, T/C: stronger effect = lower value
# How it was run: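 Single agents and combinations were tested on spheroids built from tumor cells plus HUVEC and hMSC, at half-log dilutions starting at or near clinical Cmax, else 10 microM; final DMSO 0.25% (v/v).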
# [1] = second compound 1 µM, first compound 0.00949 µM
# [2] = second compound 1 µM, first compound 0.03 µM
# [3] = second compound 1 µM, first compound 0.0949 µM
# [4] = second compound 1 µM, first compound 0.3 µM
# [5] = second compound 1 µM, first compound 0.949 µM
# [6] = second compound 1 µM, first compound 3 µM
# [7] = second compound 3.16 µM, first compound 0.00949 µM
# [8] = second compound 3.16 µM, first compound 0.03 µM
# [9] = second compound 3.16 µM, first compound 0.0949 µM
# [10] = second compound 3.16 µM, first compound 0.3 µM
# [11] = second compound 3.16 µM, first compound 0.949 µM
# [12] = second compound 3.16 µM, first compound 3 µM
# [13] = second compound 10 µM, first compound 0.00949 µM
# [14] = second compound 10 µM, first compound 0.03 µM
# [15] = second compound 10 µM, first compound 0.0949 µM
# [16] = second compound 10 µM, first compound 0.3 µM
# [17] = second compound 10 µM, first compound 0.949 µM
# [18] = second compound 10 µM, first compound 3 µM
# [19] = second compound 31.6 µM, first compound 0.00949 µM
# [20] = second compound 31.6 µM, first compound 0.03 µM
# [21] = second compound 31.6 µM, first compound 0.0949 µM
# [22] = second compound 31.6 µM, first compound 0.3 µM
# [23] = second compound 31.6 µM, first compound 0.949 µM
# [24] = second compound 31.6 µM, first compound 3 µM
# [25] = second compound 100 µM, first compound 0.00949 µM
# [26] = second compound 100 µM, first compound 0.03 µM
# [27] = second compound 100 µM, first compound 0.0949 µM
# [28] = second compound 100 µM, first compound 0.3 µM
# [29] = second compound 100 µM, first compound 0.949 µM
# [30] = second compound 100 µM, first compound 3 µM
SMILES,IC50 (second compound 1 µM) [nM],IC50 (second compound 3.16 µM) [nM],IC50 (second compound 10 µM) [nM],IC50 (second compound 31.6 µM) [nM],IC50 (second compound 100 µM) [nM],"viability, T/C [3] [%]","viability, T/C [4] [%]","viability, T/C [5] [%]","viability, T/C [6] [%]","viability, T/C [9] [%]","viability, T/C [10] [%]","viability, T/C [11] [%]","viability, T/C [12] [%]","viability, T/C [15] [%]","viability, T/C [16] [%]","viability, T/C [17] [%]","viability, T/C [18] [%]","viability, T/C [21] [%]","viability, T/C [22] [%]","viability, T/C [23] [%]",further results
CNCc1ccc(-c2cc(-c3nc(-c4ccc(S(=O)(=O)C(C)C)cc4)cnc3N)on2)cc1 + Cn1nnc2c(C(N)=O)ncn2c1=O,145,163,147,80.8,47.6,77.6,2.58,0.22,0.09,91.6,2.75,0.12,0.09,79.6,1.77,0.13,0.1,40.9,1.76,0.23,"viability, T/C [1]: 105%; viability, T/C [2]: 98.7%; viability, T/C [7]: 105%; viability, T/C [8]: 103%; viability, T/C [13]: 107%; viability, T/C [14]: 99%; viability, T/C [19]: 111%; viability, T/C [20]: 106%; viability, T/C [24]: 0.11%; viability, T/C [25]: 107%; viability, T/C [26]: 77.2%; viability, T/C [27]: 9.17%; viability, T/C [28]: 1.95%; viability, T/C [29]: 0.23%; viability, T/C [30]: 0.18%"
Cc1sc2c(c1C)C(c1ccc(Cl)cc1)=NC(CC(=O)Nc1ccc(O)cc1)c1nnc(C)n1-2 (stereo not given) + Cn1nnc2c(C(N)=O)ncn2c1=O,64.2,63.2,59.2,53.5,26.1,29.7,1.14,0.56,0.57,28.6,1.02,0.71,0.61,21.4,1.06,0.76,0.54,15.5,1.03,0.85,"viability, T/C [1]: 93.6%; viability, T/C [2]: 89.6%; viability, T/C [7]: 93.6%; viability, T/C [8]: 89.3%; viability, T/C [13]: 94.3%; viability, T/C [14]: 91.3%; viability, T/C [19]: 101%; viability, T/C [20]: 84.8%; viability, T/C [24]: 0.62%; viability, T/C [25]: 91.8%; viability, T/C [26]: 44.3%; viability, T/C [27]: 1.77%; viability, T/C [28]: 1.29%; viability, T/C [29]: 0.88%; viability, T/C [30]: 0.73%"
Cn1ncnc1[C@H]1c2n[nH]c(=O)c3cc(F)cc(c23)N[C@@H]1c1ccc(F)cc1 + Cn1nnc2c(C(N)=O)ncn2c1=O,16.3,12.8,< 9.49,< 9.49,< 9.49,4.52,2.53,1.69,1.94,2.83,2.28,2.09,1.5,2.35,1.79,1.63,2.1,2.35,1.86,2,"viability, T/C [1]: 79.6%; viability, T/C [2]: 16.8%; viability, T/C [7]: 65%; viability, T/C [8]: 7.02%; viability, T/C [13]: 4.61%; viability, T/C [14]: 2.33%; viability, T/C [19]: 2.52%; viability, T/C [20]: 2.5%; viability, T/C [24]: 1.4%; viability, T/C [25]: 2.64%; viability, T/C [26]: 2.03%; viability, T/C [27]: 2.06%; viability, T/C [28]: 2.04%; viability, T/C [29]: 1.62%; viability, T/C [30]: 1.71%"
O=C(c1cc(Cc2n[nH]c(=O)c3ccccc23)ccc1F)N1CCN(C(=O)C2CC2)CC1 + Cn1nnc2c(C(N)=O)ncn2c1=O,1660,1620,677,155,< 94.9,103,96.2,88.9,9.23,103,94.3,88.4,6.01,103,94.6,31.6,2.83,76.8,13.5,3.35,"viability, T/C (second compound 1 µM, first compound 9.49 µM): 2.81%; viability, T/C (second compound 1 µM, first compound 30 µM): 1.98%; viability, T/C (second compound 3.16 µM, first compound 9.49 µM): 2.08%; viability, T/C (second compound 3.16 µM, first compound 30 µM): 1.94%; viability, T/C (second compound 10 µM, first compound 9.49 µM): 1.83%; viability, T/C (second compound 10 µM, first compound 30 µM): 1.82%; viability, T/C [24]: 2.28%; viability, T/C (second compound 31.6 µM, first compound 9.49 µM): 2.18%; viability, T/C (second compound 31.6 µM, first compound 30 µM): 1.77%; viability, T/C [27]: 3.25%; viability, T/C [28]: 2.69%; viability, T/C [29]: 2.42%; viability, T/C [30]: 2.49%; viability, T/C (second compound 100 µM, first compound 9.49 µM): 1.81%; viability, T/C (second compound 100 µM, first compound 30 µM): 1.75%"
